According to patent publication US6498159B1, “Phthalazine derivatives and remedies for erectile dysfunction” (Eisai Co., Ltd., priority 1998, dated 2002):
pEC50, pIC50: −log10 of the molar value.

Key:
[1] = target: PDE5 (Sus scrofa, UniProt A0A287B475); assay: Inhibitory action on the enzyme cGMP-PDE obtained from porcine platelets; assay type: biochemical; settings: 1 μM cGMP substrate, 1 mM EGTA, read-out: PDE 5 IC50
Description: 1) Inhibitory Action on the Enzyme cGMP-PDE Obtained from Porcine Platelets
The inhibitory activity of a test compound on the enzyme cGMP-PDE prepared from porcine platelets was determined by adding a solution of the test compound dissolved in DMSO to a reaction solution, where 1 μM cGMP was used as the substrate in the presence of 1 mM EGTA in accordance with a method of Tompson et al. The final concentration of DMSO in the reaction solution was 1% or less. Preparation of cGMP-PDE was conducted as follows. Porcine platelets were added to buffer A (20 mM Tris/HCl, 2 mM magnesium acetate, 10 mM 2-mercaptoethanol, 0.1 mM EGTA; pH 7.4), and then sonicated. The resulting suspension was centrifuged at 100,000×g for 60 min, and the resulting supernatant was subjected to a column (DEAE-Toyopearl 650S produced by Tosoh, Tokyo, Japan). After the column was washed with buffer A, the enzyme was eluted with a gradient of from 0.075 to 0.25 M NaCl in buffer A to give a CGMP-PDE fraction. The resulting fraction was dialyzed, concentrated and stored.

[2] = tested on: penile cavernosum preparation removed from a rabbit; assay: Augmenting action of PDE5 inhibitor on the relaxation by nitroprusside of the penile cavernosum preparation removed from a rabbit; settings: for pEC50: Oryctolagus cuniculus, compound concentration at which the contraction caused by phenylephrine is relaxed by 50%, regression analysis on relaxation curve, duplicate; for Relaxation ratio (%): after nitroprusside (300 μM), phenylephrine contraction, mean of duplicate
Description: 2) Augmenting Action of the PDE5 Inhibitor on the Relaxing Action of Nitroprusside on a Penile Cavernosum Preparation Removed from a Rabbit
The penis was removed from a NZW white rabbit (about 3 kg) killed by intravenous administration of pentobarbital (50 mg/kg). After removal, the cavernosum was exposed by removal of surrounding tissues such as albuginea to give a preparation (about 10×1.5×1.5 mm). This preparation was suspended on a Magnus tube filled up with 10 ml Krebs-Henseleit's nutritive solution (118.4 mM NaCl, 4.7 mM KCl, 2.5 mM CaCl2, 1.3 mM MgSO4, 1.2 mM KH2PO4, 25.0 mM NaHCO3, 11.0 mM glucose, 0.026 mM EDTA and 0.001 mM indomethacin) at 37° C., and a gas mixture (95% oxygen+5% carbon dioxide) was bubbled thereinto. Then, the isometric tension was recorded under a load of 2 g. To stabilize the contraction, contraction caused by adding a potassium chloride solution (final concentration: 100 mM) and washing were repeated twice, and further, contraction by adding phenylephrine (final concentration: 10 μM) and washing were also conducted.
It was filled up again with 10 ml Krebs-Henseleit's solution, and L-N^G-nitroarginine methyl ester (final concentration: 100 μM) was added to inhibit the formation of endogenous nitrogen monoxide. Contraction was caused by adding phenylephrine (final concentration: 10 μM), and a chemical solution was added thereto at a final concentration of 3, 30 or 300 nM. Dimethyl sulfoxide was used as the medium in this reaction. 15 min after the chemical was added, nitroprusside (final concentration: 300 μM) was added to relax the preparation. Further, papaverine (final concentration: 100 μM) was added to determine the maximum relaxation.
After the experiment, the tension generated upon adding papaverine was used as the base line, and the relaxation of the preparation by adding nitroprusside was recorded on a chart by using a DEGIMATIC CALIPER to determine the degree of relaxation.
Values in the table indicate relaxation ratio (%) after nitroprusside was added to the preparation pretreated with the 3, 30 and 300 nM compound, and the mean in a duplicate experiment was recorded. Further, the EC50 value indicates the compound concentration at which the contraction caused by phenylephrine is relaxed by 50%, and this value was calculated by regression analysis on a relaxation curve in the duplicate experiment.

[3] = preparation pretreated with 3 nM compound
[4] = preparation pretreated with 30 nM compound
[5] = preparation pretreated with 300 nM compound

Row | Structure (SMILES) | pIC50 [1] | pEC50 [2] | Relaxation ratio (%) [2, 3] [%] | Relaxation ratio (%) [2, 4] [%] | Relaxation ratio (%) [2, 5] [%]
1 | COc1ccc(CNc2nnc(N3CCC4(CC3)CC(O)C4)c3ccc(C#N)cc23)cc1Cl.Cl [Example 9, 4-[(3-Chloro-4-methoxybenzyl)amino]-1-(2-hydroxy-7-azaspiro[3.5]non-7-yl)-6-phthalazinecarbonitrile Hydrochloride] | 9.27 | 8.70 | 56.6 | 77.7 | 79.6
2 | COc1ccc(CNc2nnc(N3CCC(C(F)CO)CC3)c3ccc(C#N)cc23)cc1Cl.Cl (stereo not drawn) [Example 36, 4-[(3-Chloro-4-methoxybenzyl)amino]-1-(4-[1-fluoro-2-hydroxyethyl)piperidino]-6-phthalazinecarbonitrile Hydrochloride] | 9.60 | 8.46 | 35.0 | 60.8 | 54.8
3 | COc1ccc(CNc2nnc(N3CCC(OCCO)CC3)c3ccc(C#N)cc23)cc1Cl.Cl [Example 37, 4-[(3-Chloro-4-methoxybenzyl)amino]-1-[4-(2-hydroxyethoxy)piperidino]-6-phthalazinecarbonitrile Hydrochloride] | – | 7.53 | 33.4 | 50.1 | 56.0
4 | COc1ccc(CNc2nnc(N3CCC(O)CC3)c3ccc(C#N)cc23)cc1Br.Cl [Example 77, 4-[(3-Bromo-4-methoxybenzyl)amino]-1-(4-hydroxypiperidino)-6-phthalazinecarbonitrile Hydrochloride] | 9.64 | 9.15 | 58.8 | 71.7 | 80.6
5 | COc1ccc(CNc2nnc(N3CCC(F)(CO)CC3)c3ccc(C#N)cc23)cc1Br.Cl [Example 83, 4-[(3-Bromo-4-methoxybenzyl)amino]-1-[4-fluoro-4-(hydroxymethyl)piperidino]-6-phthalazinecarbonitrile Hydrochloride] | 9.30 | 8.55 | 50.6 | 67.3 | 69.9
6 | COc1ccc(CNc2nnc(N3CCC(O)CC3)c3ccc(C#N)cc23)cc1C.Cl [Example 86, 1-(4-Hydroxypiperidino)-4-[(4-methoxy-3-methylbenzyl)amino]-6-phthalazinecarbonitrile Hydrochloride] | – | 8.52 | 50.2 | 70.2 | 71.5
7 | COc1ccc(CNc2nnc(N3CCC(F)(CO)CC3)c3ccc(C#N)cc23)cc1C.Cl [Example 88, 1-[4-Fluoro-4-(hydroxymethyl)piperidino]-4-[(4-methoxy-3-methylbenzyl)amino]-6-phthalazinecarbonitrile Hydrochloride] | 9.05 | 8.52 | 50.0 | 67.5 | 75.0
